Legend:
[1] = biological target: T1, Peptidyl-prolyl cis-trans isomerase FKBP1A (Homo sapiens, UniProt P62942); test: Inhibition of recombinant human FKBP12 expressed in Escherichia coli using succinyl-Ala-Phe-Pro-Phe-4-nitroanilide as substrate measured after 5 to 10 mins by spectrophotometric method
Saccharomyces cerevisiae = test: Inhibition of FKBP12 in yeast assessed as reduction in cell proliferation
[2] = biological target: T1, Peptidyl-prolyl cis-trans isomerase FKBP1A; test: Inhibition of [3H]-FK506 binding to recombinant human His6-tagged FKBP12 pretreated for 10 mins followed by [3H]-FK506 addition and measured after 1.5 hrs by microbeta scintillation counting method
[3] = Apparent terminal half life in Sprague-Dawley rat at 2.5 mg/kg, iv administered as bolus dose by mass spectrometric analysis; format: ADME, organism-based; details: in vivo, read-out: betat1/2(app) (converted)
[4] = Half life in human administered as oral dose; format: ADME, organism-based; details: in vivo

T1 sequence (P62942 whole entry): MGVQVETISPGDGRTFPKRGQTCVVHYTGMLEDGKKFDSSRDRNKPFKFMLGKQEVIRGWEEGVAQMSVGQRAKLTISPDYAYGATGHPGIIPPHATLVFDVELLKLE

Which Ki [1] does the source give for CO[C@@H]1C[C@H](C[C@@H](C)[C@@H]2CC(=O)[C@H](C)/C=C(\C)[C@@H](O)[C@@H](OC)C(=O)[C@H](C)C[C@H](C)/C=C/C=C/C=C(\C)[C@@H](OCc3ccc(Cl)cc3)C[C@@H]3CC[C@@H](C)[C@@](O)(O3)C(=O)C(=O)N3CCCC[C@H]3C(=O)O2)CC[C@H]1O here?
Its Ki is 1 nM.

And the IC12 (Saccharomyces cerevisiae)?
Its IC12 is 6 nM.

For CO[C@@H]1C[C@H](C[C@@H](C)[C@@H]2CC(=O)[C@H](C)/C=C(\C)[C@@H](O)[C@@H](OC)C(=O)[C@H](C)C[C@H](C)/C=C/C=C/C=C(\C)[C@H](SC)C[C@@H]3CC[C@@H](C)[C@@](O)(O3)C(=O)C(=O)N3CCCC[C@H]3C(=O)O2)CC[C@H]1O, which IC12 (Saccharomyces cerevisiae) is on record?
Its IC12 is 4 nM.

For CO[C@@H]1C[C@H](C[C@@H](C)[C@@H]2CC(=O)[C@H](C)/C=C(\C)[C@@H](O)[C@@H](OC)C(=O)[C@H](C)C[C@H](C)/C=C/C=C/C=C(\C)CC[C@@H]3CC[C@@H](C)[C@@](O)(O3)C(=O)C(=O)N3CCCC[C@H]3C(=O)O2)CC[C@H]1O, which IC12 (Saccharomyces cerevisiae) is on record?
The IC12 was 8 nM.

What does the source list for COc1ccc([C@@H]2C[C@@H]3CC[C@@H](C)[C@@](O)(O3)C(=O)C(=O)N3CCCC[C@H]3C(=O)O[C@H]([C@H](C)C[C@@H]3CC[C@@H](O)[C@H](OC)C3)CC(=O)[C@H](C)/C=C(\C)[C@@H](O)[C@@H](OC)C(=O)[C@H](C)C[C@H](C)/C=C/C=C/C=C/2C)c(OC)c1?
Ki [1]: 38 nM; IC12 (Saccharomyces cerevisiae): 400 nM

For CO[C@@H]1C[C@H](C[C@@H](C)[C@@H]2CC(=O)[C@H](C)/C=C(\C)[C@@H](O)[C@@H](OC)C(=O)[C@H](C)C[C@H](C)/C=C/C=C/C=C(\C)[C@@H](OCc3ccccc3)C[C@@H]3CC[C@@H](C)[C@@](O)(O3)C(=O)C(=O)N3CCCC[C@H]3C(=O)O2)CC[C@H]1O, which Ki [1] is on record?
Its Ki is 5 nM.

And the IC12 (Saccharomyces cerevisiae)?
The IC12 was 6 nM.

Which IC50 [2] does the source give for CO[C@H]1C[C@@H]2CC[C@@H](C)[C@@](O)(O2)C(=O)C(=O)N2CCSC[C@H]2C(=O)O[C@H]([C@H](C)C[C@@H]2CC[C@@H](O)[C@H](OC)C2)CC(=O)[C@H](C)/C=C(\C)[C@@H](O)[C@@H](OC)C(=O)[C@H](C)C[C@H](C)/C=C/C=C/C=C/1C here?
The IC50 was 53.6 nM.

For CO[C@@H]1C[C@H](C[C@@H](C)[C@@H]2CC(=O)[C@H](C)/C=C(\C)[C@@H](O)[C@@H](OC)C(=O)[C@H](C)C[C@H](C)/C=C/C=C/C=C(\C)[C@@H](OCc3cccc([N+](=O)[O-])c3)C[C@@H]3CC[C@@H](C)[C@@](O)(O3)C(=O)C(=O)N3CCCC[C@H]3C(=O)O2)CC[C@H]1O, which Ki [1] is on record?
The Ki was 7 nM.

What about the IC12 (Saccharomyces cerevisiae) of the same compound?
Its IC12 is 20 nM.

For CO[C@@H]1C[C@H](C[C@@H](C)[C@@H]2CC(=O)[C@H](C)/C=C(\C)[C@@H](O)[C@@H](OC)C(=O)[C@H](C)C[C@H](C)/C=C/C=C/C=C(\C)[C@H](c3ccco3)C[C@@H]3CC[C@@H](C)[C@@](O)(O3)C(=O)C(=O)N3CCCC[C@H]3C(=O)O2)CC[C@H]1O, which Ki [1] is on record?
The Ki was 6 nM.

What about the IC12 (Saccharomyces cerevisiae) of the same compound?
The IC12 was 3 nM.

With CO[C@@H]1C[C@H](C[C@@H](C)[C@@H]2CC(=O)[C@H](C)/C=C(\C)[C@@H](O)[C@@H](OC)C(=O)[C@H](C)C[C@H](C)/C=C/C=C/C=C(\C)[C@H](c3ccc[nH]3)C[C@@H]3CC[C@@H](C)[C@@](O)(O3)C(=O)C(=O)N3CCCC[C@H]3C(=O)O2)CC[C@H]1O as the compound, how does the Ki [1] read?
Its Ki is 1.5 nM.

And the IC12 (Saccharomyces cerevisiae)?
Its IC12 is 28 nM.

For CO[C@@H]1C[C@H](C[C@@H](C)[C@@H]2CC(=O)[C@H](C)/C=C(\C)[C@@H](O)[C@@H](OC)C(=O)[C@H](C)C[C@H](C)/C=C/C=C/C=C(\C)[C@@H](c3ccc[nH]3)C[C@@H]3CC[C@@H](C)[C@@](O)(O3)C(=O)C(=O)N3CCCC[C@H]3C(=O)O2)CC[C@H]1O, which Ki [1] is on record?
Its Ki is 10 nM.

And the IC12 (Saccharomyces cerevisiae)?
Its IC12 is 28 nM.

With CO[C@@H]1C[C@H](C[C@@H](C)[C@@H]2CC(=O)[C@H](C)/C=C(\C)[C@@H](O)[C@@H](OC)C(=O)[C@H](C)C[C@H](C)/C=C/C=C/C=C(\C)[C@@H](SC)C[C@@H]3CC[C@@H](C)[C@@](O)(O3)C(=O)C(=O)N3CCCC[C@H]3C(=O)O2)CC[C@H]1O as the compound, how does the IC12 (Saccharomyces cerevisiae) read?
The IC12 was 4 nM.

Which Ki [1] does the source give for CO[C@@H]1C[C@H](C[C@@H](C)[C@@H]2CC(=O)[C@H](C)/C=C(\C)[C@@H](O)[C@@H](OC)C(=O)[C@H](C)C[C@H](C)/C=C/C=C/C=C(\C)[C@@H](c3ccco3)C[C@@H]3CC[C@@H](C)[C@@](O)(O3)C(=O)C(=O)N3CCCC[C@H]3C(=O)O2)CC[C@H]1O here?
The Ki was 3 nM.

And the IC12 (Saccharomyces cerevisiae)?
The IC12 was 12.5 nM.

Which results are given for COc1cc(OC)c([C@@H]2C[C@@H]3CC[C@@H](C)[C@@](O)(O3)C(=O)C(=O)N3CCCC[C@H]3C(=O)O[C@H]([C@H](C)C[C@@H]3CC[C@@H](O)[C@H](OC)C3)CC(=O)[C@H](C)/C=C(\C)[C@@H](O)[C@@H](OC)C(=O)[C@H](C)C[C@H](C)/C=C/C=C/C=C/2C)c(OC)c1?
Ki [1]: 7 nM; IC12 (Saccharomyces cerevisiae): > 1000 nM

For CCO[C@H]1C[C@@H]2CC[C@@H](C)[C@@](O)(O2)C(=O)C(=O)N2CCCC[C@H]2C(=O)O[C@H]([C@H](C)C[C@@H]2CC[C@@H](O)[C@H](OC)C2)CC(=O)[C@H](C)/C=C(\C)[C@@H](O)[C@@H](OC)C(=O)[C@H](C)C[C@H](C)/C=C/C=C/C=C/1C, which Ki [1] is on record?
The Ki was 3.5 nM.

What about the IC12 (Saccharomyces cerevisiae) of the same compound?
The IC12 was 10 nM.

With CO[C@H]1C[C@@H]2CC[C@@H](C)[C@@](O)(O2)C(=O)C(=O)N2CCCC[C@H]2C(=O)O[C@H]([C@H](C)C[C@@H]2CC[C@@H](O)[C@H](OC)C2)CC(=O)[C@H](C)/C=C(\C)[C@@H](O)[C@@H](OC)C(=O)[C@H](C)C[C@H](C)/C=C/C=C/C=C/1C [SIROLIMUS] as the compound, how does the half-life [3] read?
Its half-life is 14 h.

What about the IC12 (Saccharomyces cerevisiae) of the same compound?
The IC12 was 7 nM.

What about the half-life [4] of the same compound?
Its half-life is 62 to 82 h.

With CO[C@H]1C[C@@H]2CC[C@@H](C)[C@@](O)(O2)C(=O)C(=O)N2CCCC[C@H]2C(=O)O[C@H]([C@H](C)C[C@@H]2CC[C@H](n3cnnn3)[C@H](OC)C2)CC(=O)[C@H](C)/C=C(\C)[C@@H](O)[C@@H](OC)C(=O)[C@H](C)C[C@H](C)/C=C/C=C/C=C/1C [ZOTAROLIMUS] as the compound, how does the half-life [3] read?
Its half-life is 9.4 h.

What does the source list for COc1ccc([C@H]2C[C@@H]3CC[C@@H](C)[C@@](O)(O3)C(=O)C(=O)N3CCCC[C@H]3C(=O)O[C@H]([C@H](C)C[C@@H]3CC[C@@H](O)[C@H](OC)C3)CC(=O)[C@H](C)/C=C(\C)[C@@H](O)[C@@H](OC)C(=O)[C@H](C)C[C@H](C)/C=C/C=C/C=C/2C)c(OC)c1?
Ki [1]: 9 nM; IC12 (Saccharomyces cerevisiae): 225 nM

What does the source list for COC(=O)N[C@@H]1C[C@@H]2CC[C@@H](C)[C@@](O)(O2)C(=O)C(=O)N2CCCC[C@H]2C(=O)O[C@H]([C@H](C)C[C@@H]2CC[C@@H](O)[C@H](OC)C2)CC(=O)[C@H](C)/C=C(\C)[C@@H](O)[C@@H](OC)C(=O)[C@H](C)C[C@H](C)/C=C/C=C/C=C/1C?
Ki [1]: 3.7 nM; IC12 (Saccharomyces cerevisiae): 220 nM

What does the source list for CO[C@@H]1C[C@H](C[C@@H](C)[C@@H]2CC(=O)[C@H](C)/C=C(\C)[C@@H](O)[C@@H](OC)C(=O)[C@H](C)C[C@H](C)/C=C/C=C/C=C(\C)C(=O)C[C@@H]3CC[C@@H](C)[C@@](O)(O3)C(=O)C(=O)N3CCCC[C@H]3C(=O)O2)CC[C@H]1O?
Ki [1]: 29 nM; IC12 (Saccharomyces cerevisiae): 210 nM

With COC(=O)N[C@H]1C[C@@H]2CC[C@@H](C)[C@@](O)(O2)C(=O)C(=O)N2CCCC[C@H]2C(=O)O[C@H]([C@H](C)C[C@@H]2CC[C@@H](O)[C@H](OC)C2)CC(=O)[C@H](C)/C=C(\C)[C@@H](O)[C@@H](OC)C(=O)[C@H](C)C[C@H](C)/C=C/C=C/C=C/1C as the compound, how does the Ki [1] read?
Its Ki is 4.5 nM.

And the IC12 (Saccharomyces cerevisiae)?
The IC12 was 170 nM.

For CO[C@@H]1C[C@@H]2CC[C@@H](C)[C@@](O)(O2)C(=O)C(=O)N2CCCC[C@H]2C(=O)O[C@H]([C@H](C)C[C@@H]2CC[C@@H](O)[C@H](OC)C2)CC(=O)[C@H](C)/C=C(\C)[C@@H](O)[C@@H](OC)C(=O)[C@H](C)C[C@H](C)/C=C/C=C/C=C/1C, which IC12 (Saccharomyces cerevisiae) is on record?
Its IC12 is 20 nM.

From ChEMBL document CHEMBL4257468, “Synthesis and biological evaluation of rapamycin-derived, next generation small molecules” (Medchemcomm, 2018)
